The record followed here is patent US6100256A, “Use of NK-1 receptors antagonists for treating schizophrenic disorders” (priority 1996, dated 2000).

Read-outs that look alike come from different tables or passages of the source.

This test addresses T1, NK-1 receptor (Meriones unguiculatus, UniProt Q5DUB1).
T1 construct: from tissue; host or cells: central nervous system of living Mongolian gerbils (in vivo, agonist infused i.c.v.)
The test is described as follows: Gerbil foot-tapping induced by central NK-1 receptor agonist (GR73632). Conditions: iv. The test is classed as in vivo, Mongolian gerbils. The source says:
Assay 2: Gerbil Foot-Tapping
CNS-penetrant NK-1 receptor antagonists for use in the present invention can be identified by their ability to inhibit foot tapping in gerbils induced by anxiogenic agents (such as pentagastrin) or central infusion of NK-1 receptor agonists such as GR73632, or caused by aversive stimulation such as foot shock or single housing, based on the method of Rupniak & Williams, Eur. J. Pharmacol., 1994, 265, 179.
Male or female Mongolian gerbils (35-70 g) are anaesthetised by inhalation of an isoflurane/oxygen mixture to permit exposure of the jugular vein in order to permit administration of test compounds or vehicle in an injection volume of 5 ml/kg i.v. Alternatively, test compounds may be administered orally or by subcutaneous or intraperitoneal routes. A skin incision is then made in the midline of the scalp to expose the skull. […]

T1 sequence (Q5DUB1 whole entry, the tested form may be a part): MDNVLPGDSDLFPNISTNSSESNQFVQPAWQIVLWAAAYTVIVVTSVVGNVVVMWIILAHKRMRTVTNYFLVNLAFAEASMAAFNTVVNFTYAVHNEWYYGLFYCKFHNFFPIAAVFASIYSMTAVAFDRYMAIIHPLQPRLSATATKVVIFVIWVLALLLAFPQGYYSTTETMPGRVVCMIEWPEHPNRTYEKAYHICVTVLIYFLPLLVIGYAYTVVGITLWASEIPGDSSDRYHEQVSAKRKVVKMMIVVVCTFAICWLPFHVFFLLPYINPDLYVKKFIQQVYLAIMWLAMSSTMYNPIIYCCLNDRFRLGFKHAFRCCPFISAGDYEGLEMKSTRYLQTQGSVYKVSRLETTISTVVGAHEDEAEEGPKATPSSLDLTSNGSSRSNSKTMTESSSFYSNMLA

Consider `OC[C@@H](O[C@H]1OCCN(Cc2nc[nH]n2)[C@H]1c1ccc(F)cc1)c1cc(C(F)(F)F)cc(C(F)(F)F)c1` [2-(R)-(1-(S)-(3,5-bis(trifluoromethyl)phenyl)-2-hydroxyethoxy)-3-(S)-(4-fluorophenyl)-4-(1,2,4-triazol-3-yl)methylmorpholine], for which the ED50 worked out at 0.38 mg/kg (5 min, i.v., 5 mins., administered immediately prior to central NK1 agonist challenge, read-out: gerbil foot-tapping (5 mins.): ID50) and 2.2 mg/kg (24 hrs. prior to central NK1 agonist challenge, read-out: gerbil foot-tapping (24 hrs.): ID50).
